Assays:
[1] = target: T1, Mitogen-activated protein kinase kinase kinase 12 (Homo sapiens) (UniProt Q12852); experiment: Selectivity interaction (KinomeScan (DiscoverX)) EUB0001079a MAP3K12; settings: at 1 µM
T1 sequence (whole entry): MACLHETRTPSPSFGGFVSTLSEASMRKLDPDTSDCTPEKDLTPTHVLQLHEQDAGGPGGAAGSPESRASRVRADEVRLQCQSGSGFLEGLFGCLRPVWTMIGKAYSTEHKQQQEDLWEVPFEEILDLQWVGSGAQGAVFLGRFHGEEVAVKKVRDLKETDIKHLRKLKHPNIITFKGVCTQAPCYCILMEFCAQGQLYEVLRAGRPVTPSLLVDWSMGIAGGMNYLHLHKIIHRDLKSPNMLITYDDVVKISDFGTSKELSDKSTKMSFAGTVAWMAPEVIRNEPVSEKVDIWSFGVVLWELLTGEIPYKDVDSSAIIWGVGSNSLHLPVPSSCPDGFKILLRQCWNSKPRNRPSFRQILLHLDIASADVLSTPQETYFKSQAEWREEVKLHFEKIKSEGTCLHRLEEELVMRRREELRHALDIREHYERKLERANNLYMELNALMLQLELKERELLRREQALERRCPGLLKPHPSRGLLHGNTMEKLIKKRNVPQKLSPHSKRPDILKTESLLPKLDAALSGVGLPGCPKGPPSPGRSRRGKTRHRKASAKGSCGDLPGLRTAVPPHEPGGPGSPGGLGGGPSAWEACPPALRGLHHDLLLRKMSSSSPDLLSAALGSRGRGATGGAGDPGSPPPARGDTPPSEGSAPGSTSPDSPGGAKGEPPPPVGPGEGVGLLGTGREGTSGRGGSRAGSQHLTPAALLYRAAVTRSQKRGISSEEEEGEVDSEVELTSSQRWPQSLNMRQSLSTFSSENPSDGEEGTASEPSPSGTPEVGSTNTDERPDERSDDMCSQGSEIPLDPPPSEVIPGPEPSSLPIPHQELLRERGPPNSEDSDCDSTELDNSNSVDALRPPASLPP

[2] = target: MAP kinase-activated protein kinase 3 (Homo sapiens) (UniProt Q16644); experiment: Selectivity interaction (Kinase panel (KiNativ target engagement assay in Jurkat cells)) EUB0001635a MAPKAPK3; format: cell-based; settings: Selectivity number of off-targets 0.0, Selectivity number of targets 233.0, Source Knowledge https://www.sciencedirect.com/science/article/pii/S2451945619300674?via%3Dihub, at 1 µM
MAP kinase-activated protein kinase 3 (Homo sapiens), sequence (Q16644 whole entry, looked up): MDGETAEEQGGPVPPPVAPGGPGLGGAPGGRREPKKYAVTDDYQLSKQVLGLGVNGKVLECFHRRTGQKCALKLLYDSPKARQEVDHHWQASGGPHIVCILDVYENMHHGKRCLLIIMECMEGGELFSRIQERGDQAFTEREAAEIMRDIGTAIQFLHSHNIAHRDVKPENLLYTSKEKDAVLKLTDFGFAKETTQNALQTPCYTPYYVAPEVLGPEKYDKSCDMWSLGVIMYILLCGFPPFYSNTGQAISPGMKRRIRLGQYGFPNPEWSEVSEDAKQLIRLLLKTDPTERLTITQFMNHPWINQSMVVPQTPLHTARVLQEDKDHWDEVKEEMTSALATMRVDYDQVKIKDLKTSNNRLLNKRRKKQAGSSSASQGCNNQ

[3] = target: Tyrosine-protein kinase FRK (Homo sapiens) (UniProt P42685); settings: at 10 µM
Tyrosine-protein kinase FRK (Homo sapiens), sequence (P42685 whole entry): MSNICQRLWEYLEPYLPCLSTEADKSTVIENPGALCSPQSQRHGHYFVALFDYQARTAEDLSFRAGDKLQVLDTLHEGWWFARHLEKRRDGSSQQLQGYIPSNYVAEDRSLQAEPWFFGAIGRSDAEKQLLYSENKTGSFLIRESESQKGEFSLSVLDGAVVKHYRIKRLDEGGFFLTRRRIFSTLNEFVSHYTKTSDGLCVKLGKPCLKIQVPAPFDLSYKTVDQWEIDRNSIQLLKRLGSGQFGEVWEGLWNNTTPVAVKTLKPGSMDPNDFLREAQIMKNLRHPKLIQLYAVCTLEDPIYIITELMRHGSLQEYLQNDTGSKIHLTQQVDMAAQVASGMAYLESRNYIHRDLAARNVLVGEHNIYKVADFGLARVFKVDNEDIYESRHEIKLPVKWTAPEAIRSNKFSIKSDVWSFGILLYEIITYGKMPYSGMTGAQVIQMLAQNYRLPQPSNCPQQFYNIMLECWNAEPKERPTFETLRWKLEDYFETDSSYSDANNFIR

[4] = target: STE20-like serine/threonine-protein kinase (Homo sapiens, UniProt Q9H2G2); settings: at 10 µM
STE20-like serine/threonine-protein kinase, sequence (Q9H2G2 whole entry, looked up): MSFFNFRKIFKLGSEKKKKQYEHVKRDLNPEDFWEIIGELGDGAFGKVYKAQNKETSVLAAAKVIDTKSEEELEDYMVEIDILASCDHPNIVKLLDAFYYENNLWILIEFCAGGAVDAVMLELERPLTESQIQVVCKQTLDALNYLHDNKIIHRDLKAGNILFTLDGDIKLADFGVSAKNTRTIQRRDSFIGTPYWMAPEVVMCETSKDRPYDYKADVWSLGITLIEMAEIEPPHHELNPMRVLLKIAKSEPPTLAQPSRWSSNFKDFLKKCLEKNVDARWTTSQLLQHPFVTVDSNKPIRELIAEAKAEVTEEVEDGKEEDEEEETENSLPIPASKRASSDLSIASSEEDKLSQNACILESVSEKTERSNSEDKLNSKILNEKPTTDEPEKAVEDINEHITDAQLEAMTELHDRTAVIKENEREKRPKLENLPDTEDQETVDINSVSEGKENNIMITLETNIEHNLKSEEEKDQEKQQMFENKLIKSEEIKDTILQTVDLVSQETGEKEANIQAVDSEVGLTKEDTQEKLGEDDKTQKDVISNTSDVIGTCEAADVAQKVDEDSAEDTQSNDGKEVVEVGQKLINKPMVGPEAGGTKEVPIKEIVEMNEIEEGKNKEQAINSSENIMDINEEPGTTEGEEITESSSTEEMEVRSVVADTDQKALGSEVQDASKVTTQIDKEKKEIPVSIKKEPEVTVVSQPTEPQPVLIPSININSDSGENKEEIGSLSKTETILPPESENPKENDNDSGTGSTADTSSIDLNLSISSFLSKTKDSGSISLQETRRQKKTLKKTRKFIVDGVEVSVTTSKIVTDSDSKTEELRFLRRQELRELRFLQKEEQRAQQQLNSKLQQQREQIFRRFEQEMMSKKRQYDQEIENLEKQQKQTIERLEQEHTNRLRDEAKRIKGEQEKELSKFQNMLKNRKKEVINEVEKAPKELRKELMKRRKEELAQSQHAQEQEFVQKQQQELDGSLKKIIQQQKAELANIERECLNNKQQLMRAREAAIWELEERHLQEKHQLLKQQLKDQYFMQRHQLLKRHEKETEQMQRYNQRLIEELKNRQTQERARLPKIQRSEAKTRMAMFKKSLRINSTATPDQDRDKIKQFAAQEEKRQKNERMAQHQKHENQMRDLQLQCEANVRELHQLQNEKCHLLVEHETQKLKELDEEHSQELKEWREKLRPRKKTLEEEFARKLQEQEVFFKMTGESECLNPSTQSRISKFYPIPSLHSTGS

[5] = target: Serine/threonine-protein kinase PRP4 homolog (Homo sapiens) (UniProt Q13523); experiment: Selectivity interaction (ActivX KiNativ screen (kinase selectivity in THP-1 cell lysates)) EUB0000639a PRPF4; format: subcellular; settings: lysate, at 0.01 µM
Serine/threonine-protein kinase PRP4 homolog (Homo sapiens), sequence (Q13523 whole entry): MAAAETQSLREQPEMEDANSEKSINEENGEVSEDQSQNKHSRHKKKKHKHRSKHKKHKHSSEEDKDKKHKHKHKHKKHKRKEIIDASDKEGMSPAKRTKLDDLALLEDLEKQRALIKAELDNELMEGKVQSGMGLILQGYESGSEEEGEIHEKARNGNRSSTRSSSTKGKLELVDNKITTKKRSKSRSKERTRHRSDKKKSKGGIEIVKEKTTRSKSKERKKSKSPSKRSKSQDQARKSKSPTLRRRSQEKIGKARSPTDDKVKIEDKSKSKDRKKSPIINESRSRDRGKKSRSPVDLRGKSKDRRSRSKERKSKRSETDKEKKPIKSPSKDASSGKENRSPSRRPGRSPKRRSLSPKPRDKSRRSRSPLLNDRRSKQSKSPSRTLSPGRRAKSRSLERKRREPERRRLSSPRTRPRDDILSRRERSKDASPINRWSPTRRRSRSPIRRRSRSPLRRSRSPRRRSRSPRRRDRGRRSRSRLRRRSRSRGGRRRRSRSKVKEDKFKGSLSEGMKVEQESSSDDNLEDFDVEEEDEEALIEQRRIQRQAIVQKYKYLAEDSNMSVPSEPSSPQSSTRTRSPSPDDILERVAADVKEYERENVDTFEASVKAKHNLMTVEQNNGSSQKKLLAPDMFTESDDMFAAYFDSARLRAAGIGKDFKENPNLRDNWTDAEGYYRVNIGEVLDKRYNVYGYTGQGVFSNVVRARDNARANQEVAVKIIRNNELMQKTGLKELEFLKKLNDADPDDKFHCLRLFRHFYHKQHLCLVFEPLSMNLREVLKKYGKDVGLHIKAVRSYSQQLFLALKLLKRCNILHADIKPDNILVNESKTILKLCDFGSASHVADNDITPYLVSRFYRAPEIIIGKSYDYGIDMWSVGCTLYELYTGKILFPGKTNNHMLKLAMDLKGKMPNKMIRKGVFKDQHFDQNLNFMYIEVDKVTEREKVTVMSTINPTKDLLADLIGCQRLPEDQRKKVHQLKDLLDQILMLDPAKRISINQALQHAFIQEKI

[6] = target: Tyrosine-protein kinase Srms (Homo sapiens) (UniProt Q9H3Y6); experiment: Selectivity interaction (KinomeScan (DiscoverX)) EUB0000595a SRMS; settings: at 10 µM
Tyrosine-protein kinase Srms (Homo sapiens), sequence (Q9H3Y6 whole entry): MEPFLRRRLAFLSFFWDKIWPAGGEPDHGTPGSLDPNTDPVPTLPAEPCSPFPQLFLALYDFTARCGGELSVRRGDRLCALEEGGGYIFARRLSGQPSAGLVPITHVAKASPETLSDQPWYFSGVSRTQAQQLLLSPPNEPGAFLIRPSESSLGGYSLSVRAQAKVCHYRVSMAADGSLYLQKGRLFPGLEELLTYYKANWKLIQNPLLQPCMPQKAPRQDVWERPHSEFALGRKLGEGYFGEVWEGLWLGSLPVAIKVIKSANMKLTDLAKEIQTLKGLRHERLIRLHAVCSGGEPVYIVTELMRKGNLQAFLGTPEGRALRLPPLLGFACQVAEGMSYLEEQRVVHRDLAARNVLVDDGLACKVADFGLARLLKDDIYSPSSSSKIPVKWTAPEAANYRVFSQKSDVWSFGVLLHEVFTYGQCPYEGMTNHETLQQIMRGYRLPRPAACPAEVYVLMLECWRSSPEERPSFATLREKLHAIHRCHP

[7] = target: Casein kinase II subunit alpha (Homo sapiens, UniProt P68400); experiment: Selectivity interaction (KinomeScan (DiscoverX)) EUB0000092b CSNK2A1; settings: at 10 µM
Casein kinase II subunit alpha, sequence (P68400 whole entry, looked up): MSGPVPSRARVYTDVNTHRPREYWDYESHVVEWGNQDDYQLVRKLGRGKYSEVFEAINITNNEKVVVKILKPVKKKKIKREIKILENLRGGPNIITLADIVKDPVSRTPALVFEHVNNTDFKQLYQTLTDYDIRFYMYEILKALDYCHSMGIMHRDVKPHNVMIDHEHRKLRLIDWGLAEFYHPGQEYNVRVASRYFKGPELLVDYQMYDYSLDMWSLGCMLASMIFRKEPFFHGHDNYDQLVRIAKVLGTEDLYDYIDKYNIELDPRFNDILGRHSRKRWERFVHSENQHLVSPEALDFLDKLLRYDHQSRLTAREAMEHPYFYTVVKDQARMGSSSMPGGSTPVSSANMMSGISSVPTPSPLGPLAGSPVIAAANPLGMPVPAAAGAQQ

[8] = target: T2, Aurora kinase C (Homo sapiens) (UniProt Q9UQB9); experiment: Selectivity interaction (Ambit KINOMEscan and KiNATiv profiling in Jurkat cells) EUB0000090b AURKC; format: cell-based; settings: at 1 µM
T2 sequence (whole entry): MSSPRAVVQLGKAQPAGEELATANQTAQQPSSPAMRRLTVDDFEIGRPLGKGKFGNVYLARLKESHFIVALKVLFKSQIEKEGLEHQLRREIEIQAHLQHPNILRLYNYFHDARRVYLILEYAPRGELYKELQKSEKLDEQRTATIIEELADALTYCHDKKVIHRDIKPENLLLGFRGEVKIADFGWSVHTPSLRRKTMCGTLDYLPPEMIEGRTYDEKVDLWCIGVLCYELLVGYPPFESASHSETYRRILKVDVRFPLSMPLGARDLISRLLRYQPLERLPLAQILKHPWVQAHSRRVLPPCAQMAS

[9] = target: T3, NUAK family SNF1-like kinase 2 (Homo sapiens) (UniProt Q9H093); experiment: Selectivity interaction (KinomeScan (DiscoverX)) EUB0000045b NUAK2
T3 sequence (whole entry): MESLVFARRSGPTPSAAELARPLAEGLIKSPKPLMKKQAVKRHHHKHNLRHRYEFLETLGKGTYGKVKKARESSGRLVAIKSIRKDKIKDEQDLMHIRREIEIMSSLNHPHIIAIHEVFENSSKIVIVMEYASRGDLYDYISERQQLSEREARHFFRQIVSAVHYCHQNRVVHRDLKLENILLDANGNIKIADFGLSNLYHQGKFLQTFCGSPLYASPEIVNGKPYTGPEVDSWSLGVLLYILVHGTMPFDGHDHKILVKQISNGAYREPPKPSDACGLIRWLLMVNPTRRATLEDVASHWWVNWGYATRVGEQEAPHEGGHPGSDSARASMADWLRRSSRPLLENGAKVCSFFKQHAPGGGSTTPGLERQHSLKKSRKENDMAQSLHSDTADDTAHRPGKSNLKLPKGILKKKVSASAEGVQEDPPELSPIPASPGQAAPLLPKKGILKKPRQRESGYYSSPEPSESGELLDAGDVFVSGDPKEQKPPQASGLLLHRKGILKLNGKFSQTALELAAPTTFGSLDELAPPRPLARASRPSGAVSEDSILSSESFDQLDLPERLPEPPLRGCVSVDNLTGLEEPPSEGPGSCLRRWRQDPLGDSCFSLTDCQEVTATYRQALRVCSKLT

[10] = target: T2, Aurora kinase C (Homo sapiens); experiment: Selectivity interaction (KinomeScan (DiscoverX)) EUB0000618a AURKC; settings: at 10 µM
[11] = target: Serine/threonine-protein kinase Chk2 (Homo sapiens) (UniProt O96017); experiment: Selectivity interaction (KinomeScan (DiscoverX)) EUB0000618a CHEK2; settings: at 10 µM
Serine/threonine-protein kinase Chk2 (Homo sapiens), sequence (O96017 whole entry): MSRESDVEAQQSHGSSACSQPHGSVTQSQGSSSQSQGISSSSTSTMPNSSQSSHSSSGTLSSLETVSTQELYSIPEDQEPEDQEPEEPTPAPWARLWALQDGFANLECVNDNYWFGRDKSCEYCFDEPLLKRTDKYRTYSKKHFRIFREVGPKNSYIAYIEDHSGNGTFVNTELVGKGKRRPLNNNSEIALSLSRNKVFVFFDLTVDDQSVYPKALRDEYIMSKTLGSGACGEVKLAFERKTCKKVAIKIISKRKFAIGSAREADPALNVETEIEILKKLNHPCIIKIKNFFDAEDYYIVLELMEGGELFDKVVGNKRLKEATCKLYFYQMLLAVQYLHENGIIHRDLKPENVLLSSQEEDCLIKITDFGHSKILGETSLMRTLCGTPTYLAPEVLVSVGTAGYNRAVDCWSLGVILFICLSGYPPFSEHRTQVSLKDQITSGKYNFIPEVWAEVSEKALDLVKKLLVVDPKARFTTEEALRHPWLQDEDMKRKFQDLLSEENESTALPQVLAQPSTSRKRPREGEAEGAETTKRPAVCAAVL

Nc1cnc(N2CCc3cc(S(=O)(=O)Nc4c(F)cc(Cl)cc4F)cc(N4CCCC4=O)c32)nc1 [TP-020n]
% of control [1]: 100%

C=CC(=O)Nc1ccc(C(=O)Nc2[nH]nc3c2CN(C(=O)N[C@H](CN(C)C)c2ccccc2)C3(C)C)cc1
% of engagement [2]: -9.9%

CCN(CC)CCCCNc1ncc2cc(-c3cc(OC)cc(OC)c3)c(NC(=O)NC(C)(C)C)nc2n1
% of control [3]: 100%
% of control [4]: 100%

CC[C@@H]1[C@H](F)C(=O)N[C@@H]1COc1nccc2cc(C(N)=O)c(OC)cc12 [ZIMLOVISERTIB]
% of inhibition [5]: 15.8%

COCC(=O)NC/C=C/c1ccc2ncnc(Nc3ccc(Oc4ccc(C)nc4)c(C)c3)c2c1 [CP-724714]
% of control [6]: 71%

CCC(=O)N1CCN(c2ccc(-n3c(=O)ccc4cnc5ccc(-c6cnc7ccccc7c6)cc5c43)cc2C(F)(F)F)CC1
% of control [7]: 94%

CN(C)C/C=C/C(=O)Nc1ccc(C(=O)N2CCCC(Nc3ncc(Cl)c(-c4c[nH]c5ccccc45)n3)C2)cc1 (configuration not stated)
% of control [8]: 100%

C=CC(=O)Nc1cc(-n2c(=O)ccc3cnc4ccc(-c5ccc(NS(C)(=O)=O)cc5)cc4c32)ccc1C
% of control ([9]; at 1 µM): 100%
% of control ([9]; at 10 µM): 100%

O[C@H]1CC[C@H](Nc2ncc3nc(Nc4c(F)cc(F)cc4F)n([C@H]4CCOC4)c3n2)CC1
% of control [10]: 100%
% of control [11]: 100%

Reference: ChEMBL document CHEMBL5465560, “Selectivity Literature for EUbOPEN Chemogenomic Library” (2024)
